Common to all, as to type: cell-based
Assay [1] deals with T1, CK1α (Homo sapiens, UniProt P48729+Q96SW2).
T1 construct: CSNK1A1-HiBit KI HEK293(LgBit) Cells; host or cells: HEK293(LgBit) knock-in cells
The assay can be described thus: HiBiT degradation assay, CK1α, Procedure A. The essentials:
(§1)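 Six-hour treatment at 37° C, ten doses between 10 μM and 0.005 μM, then HiBiT lytic luminescence. Fitted DC50 and Ymin.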
In general terms: HiBiT is a short tag that completes a luciferase, so light tracks the accessible tagged protein.

The test system of assay [2] is Z-138 cells. The assay can be described thus: Z-138 Proliferation Assay (Cell Titer-Glo). Conditions: 72 hours; for Ymin (%): % remaining (percent of DMSO control); for pEC50: Homo sapiens, Cell Titer-Glo, 4-parameter curve fit. The protocol:
Z-138 Proliferation Assay
Z-138 cells were cultured in IMDM Medium supplemented with 10% heat in-activated fetal bovine serum and 1% Penicillin-Streptomycin.
10 mM stocks of compound were made from fresh powder. DMSO was added to solid compound so that the final concentration was 10 mM. Compounds were vortexed and allowed to sit for 5 minutes to ensure complete solubility. Solvated compound was aliquoted into 1 ml Eppendorf tubes and stored in a −20° C. freezer.
Z-138 cells were maintained in culture using standard cell culturing techniques.
Cells were maintained at a density of 0.8×10^6 cells/ml.
Re-constitute cell titer-glo reagent according to manufacturer's protocol.
Z-138 cells were removed from culture and cell viability and density were determined using a CellDrop™ Automated Cell Counter with Tryphan blue stain according to manufacturer's protocols. Cells were centrifuged and resuspended using fresh media to a cell density of 0.1×10^6 cells/ml. […] 40 μl of cell suspension was added to the wells of a 384 well tissue culture plate (4,000 cells/well final). Upon completing the addition of the cells to the plate, the plates were centrifuged for 30 seconds at 300 rpms to help the cells settle and to bring air bubbles to the top of the wells. Air bubbles were popped using a pipette tip.
10-point dose response curves were performed using a D300e Digital Dispenser. The highest concentration of compound used in the assay was 10,000 nM. 1:2 dilutions were performed over a 10-point range with the final DMSO concentration being 0.1%. The cells were cultured for 72 hours in the presence of compound.
After 72 hours, the cell plates were removed from the incubator and allowed to equilibrate to room temperature (about 15 minutes). 20 μl of cell titer-glo reagent was added to each well of the 384 well plate. Incubated the plate for 30 minutes in the dark. After 30 minutes, ensured that there were no air bubbles in the plate (popped bubbles with pipette tip if necessary) and analyzed plate using a luminometer.
EC50 curves were generated using Prism Graph Pad. In brief, POCs (percent of control, compound/DMSO control×100) were plotted against the compound concentrations (log scale). EC50 curves were generated using a 4-parameter curve fit.

In assay [3] the target is GSPT1 (Homo sapiens, UniProt P15170+Q96SW2). The assay can be described thus: HiBiT degradation assay, GSPT1, Procedure A. More on the design: HiBit-GSPT1 KI HEK293(LgBit) Cells; host or cells: HEK293(LgBit) knock-in cells. The essentials: as §1
GSPT1, sequence (P15170 whole entry): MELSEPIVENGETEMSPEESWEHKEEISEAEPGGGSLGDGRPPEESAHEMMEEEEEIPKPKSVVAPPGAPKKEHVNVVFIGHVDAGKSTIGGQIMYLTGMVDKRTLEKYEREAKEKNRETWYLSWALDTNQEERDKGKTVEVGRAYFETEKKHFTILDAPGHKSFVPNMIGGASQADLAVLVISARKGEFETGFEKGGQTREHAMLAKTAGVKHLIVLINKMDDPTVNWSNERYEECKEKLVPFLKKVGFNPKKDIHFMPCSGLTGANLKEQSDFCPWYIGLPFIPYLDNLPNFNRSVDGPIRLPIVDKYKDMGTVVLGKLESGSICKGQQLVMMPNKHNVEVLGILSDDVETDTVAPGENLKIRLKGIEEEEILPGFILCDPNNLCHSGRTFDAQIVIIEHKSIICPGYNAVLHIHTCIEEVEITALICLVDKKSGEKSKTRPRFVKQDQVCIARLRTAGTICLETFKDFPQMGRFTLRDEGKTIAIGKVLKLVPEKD
GSPT1, sequence (Q96SW2 whole entry): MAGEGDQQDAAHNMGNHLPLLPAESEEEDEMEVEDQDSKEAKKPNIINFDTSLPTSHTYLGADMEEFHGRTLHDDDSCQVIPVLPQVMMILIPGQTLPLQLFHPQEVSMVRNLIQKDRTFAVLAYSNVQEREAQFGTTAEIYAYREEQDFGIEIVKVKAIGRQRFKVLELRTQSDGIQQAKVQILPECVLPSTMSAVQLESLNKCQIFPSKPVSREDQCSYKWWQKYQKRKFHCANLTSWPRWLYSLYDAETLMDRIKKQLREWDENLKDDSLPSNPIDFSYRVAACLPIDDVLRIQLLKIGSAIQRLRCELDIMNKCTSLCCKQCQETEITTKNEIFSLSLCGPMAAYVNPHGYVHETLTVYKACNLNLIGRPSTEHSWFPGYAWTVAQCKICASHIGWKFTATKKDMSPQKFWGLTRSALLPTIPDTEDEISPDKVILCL
GSPT1, sequence (Q16531 whole entry partner): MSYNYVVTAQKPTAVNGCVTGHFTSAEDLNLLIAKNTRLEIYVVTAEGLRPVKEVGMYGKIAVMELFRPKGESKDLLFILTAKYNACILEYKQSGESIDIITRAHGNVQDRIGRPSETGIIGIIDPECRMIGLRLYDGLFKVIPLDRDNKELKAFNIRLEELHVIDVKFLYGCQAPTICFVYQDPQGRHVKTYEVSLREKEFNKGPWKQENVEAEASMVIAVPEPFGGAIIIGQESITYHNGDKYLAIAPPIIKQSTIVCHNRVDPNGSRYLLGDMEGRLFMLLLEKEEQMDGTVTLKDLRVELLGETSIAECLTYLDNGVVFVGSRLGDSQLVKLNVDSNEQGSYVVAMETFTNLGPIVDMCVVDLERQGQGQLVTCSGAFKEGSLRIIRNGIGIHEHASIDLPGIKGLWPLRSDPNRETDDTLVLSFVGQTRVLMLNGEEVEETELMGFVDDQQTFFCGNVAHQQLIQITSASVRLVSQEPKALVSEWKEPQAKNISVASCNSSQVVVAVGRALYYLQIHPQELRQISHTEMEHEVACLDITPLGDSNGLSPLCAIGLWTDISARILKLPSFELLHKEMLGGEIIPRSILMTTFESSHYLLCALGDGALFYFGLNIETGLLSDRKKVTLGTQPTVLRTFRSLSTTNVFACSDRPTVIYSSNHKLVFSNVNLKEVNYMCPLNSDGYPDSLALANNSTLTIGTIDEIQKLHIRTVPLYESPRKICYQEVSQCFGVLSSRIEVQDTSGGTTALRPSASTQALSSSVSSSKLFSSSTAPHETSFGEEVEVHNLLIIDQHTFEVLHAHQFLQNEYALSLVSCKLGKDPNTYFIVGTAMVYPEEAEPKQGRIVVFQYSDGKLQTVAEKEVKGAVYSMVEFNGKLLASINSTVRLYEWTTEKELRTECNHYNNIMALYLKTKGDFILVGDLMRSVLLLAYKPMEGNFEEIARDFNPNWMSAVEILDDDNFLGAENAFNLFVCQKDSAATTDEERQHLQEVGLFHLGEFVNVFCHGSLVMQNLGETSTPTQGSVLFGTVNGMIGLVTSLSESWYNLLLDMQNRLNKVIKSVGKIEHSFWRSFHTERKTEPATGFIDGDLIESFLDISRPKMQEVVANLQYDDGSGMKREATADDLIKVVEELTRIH

pEC50: −log10 of the molar value.

The term DC50 denotes the concentration giving 50% degradation. A word on the pEC50: it is the negative decadic logarithm of the EC50, by convention in mol/L. The low end stands for a large EC50, the high end for a small EC50.

T1 sequence (P48729 whole entry): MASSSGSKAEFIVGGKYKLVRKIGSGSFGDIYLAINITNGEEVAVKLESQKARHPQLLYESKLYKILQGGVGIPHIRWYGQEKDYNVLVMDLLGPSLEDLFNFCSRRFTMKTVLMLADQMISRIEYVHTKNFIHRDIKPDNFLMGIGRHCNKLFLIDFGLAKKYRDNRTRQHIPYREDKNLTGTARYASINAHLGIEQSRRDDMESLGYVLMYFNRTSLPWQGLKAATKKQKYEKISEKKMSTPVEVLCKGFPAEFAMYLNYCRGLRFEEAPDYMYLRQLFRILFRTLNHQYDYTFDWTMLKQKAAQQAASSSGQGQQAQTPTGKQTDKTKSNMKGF
T1 sequence (Q96SW2 whole entry): as the sequence (Q96SW2 whole entry) above
T1 sequence (Q16531 whole entry partner): as the sequence (Q16531 whole entry partner) above

As for `Cc1c(-c2ccccc2)c(-c2ccc3c(c2)CN(C2CCC(=O)NC2=O)C3=O)nn1C` (stereo not drawn) [Example 17, 3-(5-(1,5-Dimethyl-4-phenyl-1H-pyrazol-3-yl)-1-oxoisoindolin-2-yl)piperidine-2,6-dione], in assay [1] (six hours incubation), the “CK1α Ymin” value is “C (C = 0-10% remaining)” and the DC50 is less than 25 nM. For the same molecule, in assay [2], the “Ymin (%)” value is on record as “D (0-10% remaining)” and the pEC50 was more than 8.00. Moreover, in assay [3] (six hours incubation), the DC50 is not below 25 nM and the “GSPT1 Ymin” value is “E (E = >25-75% remaining)”.

Regarding `Cn1cnc(-c2ccc3c(c2)CN(C2CCC(=O)NC2=O)C3=O)c1-c1cccc(N2CCCC2)c1` (stereo not drawn) [Example 287], in assay [1] (six hours incubation), the “CK1α Ymin” value is on record as “D (D = >10- 25% remaining)” and the DC50 is less than 25 nM. In addition, in assay [2], the “Ymin (%)” value is listed as “D (0-10% remaining)” and the pEC50 is more than 8.00. Besides, in assay [3] (six hours incubation), the DC50 is less than 25 nM and the “GSPT1 Ymin” value is given as “F (F = >75-100% remaining)”.

Turning to `CN(C)Cc1ccc(-c2c(-c3ccc4c(c3)CN(C3CCC(=O)NC3=O)C4=O)ncn2C)cc1` (stereo not drawn) [Example 269], in assay [1] (six hours incubation), the “CK1α Ymin” value is “C (C = 0-10% remaining)” and the 50% degradation concentration (DC50) is less than 25 nM. In assay [2], the “Ymin (%)” value is recorded as “D (0-10% remaining)” and the negative-log EC50 (pEC50) was more than 8.00. Besides, in assay [3] (six hours incubation), the DC50 was less than 25 nM and the “GSPT1 Ymin” value is “F (F = >75-100% remaining)”.

Regarding `Cc1nc(-c2ccc3c(c2)CN(C2CCC(=O)NC2=O)C3=O)c(-c2ccccc2)n1C` (stereo not drawn) [Example 14, 3-(5-(1,2-Dimethyl-5-phenyl-1H-imidazol-4-yl)-1-oxoisoindolin-2-yl)piperidine-2,6-dione], in assay [1] (six hours incubation), the “CK1α Ymin” value is listed as “C (C = 0-10% remaining)” and the DC50 was less than 25 nM. Moreover, in assay [2], the “Ymin (%)” value was “D (0-10% remaining)” and the pEC50 is more than 8.00. Further, in assay [3] (six hours incubation), the DC50 was not below 25 nM and the “GSPT1 Ymin” value is on record as “E (E = >25-75% remaining)”.

As to `Cn1ncc(-c2ccc3c(c2)CN(C2CCC(=O)NC2=O)C3=O)c1-c1ccc2cc[nH]c2c1` (stereo not drawn) [Example 379], in assay [1] (six hours), the “CK1α Ymin” value is on record as “C (C = 0-10% remaining)” and the 50% degradation concentration (DC50) was less than 25 nM. For the same molecule, in assay [2], the “Ymin (%)” value is recorded as “D (0-10% remaining)” and the pEC50 is more than 8.00. Further, in assay [3] (six hours), the DC50 was not below 25 nM and the “GSPT1 Ymin” value was “F (F = >75-100% remaining)”.

As to `Cn1nc(-c2ccc3c(c2)CN(C2CCC(=O)NC2=O)C3=O)nc1C1CCCCC1` (stereo not drawn) [Example 614, 3-(5-(5-cyclohexyl-1-methyl-1H-1,2,4-triazol-3-yl)-1-oxoisoindolin-2-yl)piperidine-2,6-dione], in assay [1] (six hours), the “CK1α Ymin” value is given as “D (D = >10- 25% remaining)” and the DC50 was not below 25 nM. Besides, in assay [2], the “Ymin (%)” value is recorded as “F (>25-50% remaining)” and the negative logarithm of the EC50 (pEC50) was 7.00 to 8.00. In assay [3] (six hours), the DC50 is not below 25 nM and the “GSPT1 Ymin” value is “F (F = >75-100% remaining)”.

With `O=C1CCC(N2Cc3cc(-c4ccn(-c5ccccc5)n4)ccc3C2=O)C(=O)N1` (stereo not drawn) [Example 34, 3-(1-Oxo-5-(1-phenyl-1H-pyrazol-3-yl)isoindolin-2-yl)piperidine-2,6-dione], in assay [1] (six hours incubation), the “CK1α Ymin” value was “D (D = >10- 25% remaining)” and the DC50 is less than 25 nM. Moreover, in assay [2], the “Ymin (%)” value is “E (>10-25% remaining)” and the pEC50 is 7.00 to 8.00. In addition, in assay [3] (six hours incubation), the DC50 was not below 25 nM and the “GSPT1 Ymin” value is given as “F (F = >75-100% remaining)”.

Take `O=C1CCC(N2Cc3cc(-c4cnn(C(F)F)c4-c4ccccc4)ccc3C2=O)C(=O)N1` (stereo not drawn) [Example 422, 3-(5-(1-(difluoromethyl)-5-phenyl-1H-pyrazol-4-yl)-1-oxoisoindolin-2-yl)piperidine-2,6-dione]: in assay [1] (six hours), the “CK1α Ymin” value is recorded as “D (D = >10- 25% remaining)” and the DC50 is less than 25 nM. For the same molecule, in assay [2], the “Ymin (%)” value is recorded as “D (0-10% remaining)” and the negative logarithm of the EC50 (pEC50) is 7.00 to 8.00. Also, in assay [3] (six hours), the DC50 was less than 25 nM and the “GSPT1 Ymin” value is given as “F (F = >75-100% remaining)”.

Source of the values: patent publication US20240158370A1, “CK1 alpha AND DUAL CK1 alpha / GSPT1 DEGRADING COMPOUNDS” (Innovo Therapeutics, Inc., priority 2022, published 2024).
